Data as given in US10945969B2, “Compositions containing thymohydroquinone and their method of preparation” (SAMI LABS LIMITED, priority 2017, dated 2021).

Assays:
[1] = Long term stability study; format: physicochemical
[2] = Accelerated stability study; format: physicochemical; conditions: for TQ content by GC (%) / Difference in TQ content / Percentage difference in TQ / THQ content by GC (%) / Difference in THQ content (%) / Percentage difference in THQ: accelerated stability
[3] = compared with thymoquinone; cited from earlier work
[4] = compared with thymoquinone; cited from earlier work; remark: listed apart in the source
[5] = over the accelerated stability study

Structure (SMILES): CC1=CC(=O)C(C(C)C)=CC1=O [TQ, thymoquinone]
- TQ content by GC (%) ([1]; 3rd month): 0.643%
- Difference in TQ content ([1]; 3rd month vs initial): 0.09%
- Percentage difference in TQ ([1]; 3rd month vs initial): −12.27%
- TQ content by GC (%) ([1]; 6th month): 0.634%
- Difference in TQ content ([1]; 6th month vs initial): 0.099%
- Percentage difference in TQ ([1]; 6th month vs initial): −13.50%
- Difference in TQ content ([1]; Initial (0 Month)): 0%
- Percentage difference in TQ ([1]; Initial (0 Month)): 0%
- TQ content by GC (%) ([1]; Initial (0 Month)): 0.733%
- TQ content by GC (%) ([2]; 1st month): 0.717%
- Difference in TQ content ([2]; 1st month vs initial): 0.016%
- Percentage difference in TQ ([2]; 1st month vs initial): −2.18%
- TQ content by GC (%) ([2]; 2nd month): 0.706%
- Difference in TQ content ([2]; 2nd month vs initial): 0.027%
- Percentage difference in TQ ([2]; 2nd month vs initial): −3.68%
- TQ content by GC (%) ([2]; 3rd month): 0.622%
- Difference in TQ content ([2]; 3rd month vs initial): 0.111%
- Percentage difference in TQ ([2]; 3rd month vs initial): −15.14%
- TQ content by GC (%) ([2]; 6th month): 0.548%
- Difference in TQ content ([2]; 6th month vs initial): 0.185%
- Percentage difference in TQ ([2]; 6th month vs initial): −25.23%
- Difference in TQ content ([2]; Initial (0 month)): 0%
- Percentage difference in TQ ([2]; Initial (0 month)): 0%
- TQ content by GC (%) ([2]; Initial (0 month)): 0.733%
- content of thymoquinone, trend [2, 5]: decrease

Structure (SMILES): Cc1cc(O)c(C(C)C)cc1O [THQ, thymohydroquinone]
- antioxidant potential [3]: more potent
- THQ content by GC (%) ([1]; 3rd month): 0.095%
- Difference in THQ content ([1]; 3rd month vs initial): 0.062%
- Percentage difference in THQ ([1]; 3rd month vs initial): +187.88%
- THQ content by GC (%) ([1]; 6th month): 0.138%
- Difference in THQ content ([1]; 6th month vs initial): 0.105%
- Percentage difference in THQ ([1]; 6th month vs initial): +318.18%
- Difference in THQ content ([1]; Initial (0 Month)): 0%
- Percentage difference in THQ ([1]; Initial (0 Month)): 0%
- THQ content by GC (%) ([1]; Initial (0 Month)): 0.033%
- THQ content by GC (%) ([2]; 1st month): 0.037%
- Difference in THQ content (%) ([2]; 1st month vs initial): 0.004%
- Percentage difference in THQ ([2]; 1st month vs initial): +12.12%
- THQ content by GC (%) ([2]; 2nd month): 0.041%
- Difference in THQ content (%) ([2]; 2nd month vs initial): 0.008%
- Percentage difference in THQ ([2]; 2nd month vs initial): +24.24%
- THQ content by GC (%) ([2]; 3rd month): 0.092%
- Difference in THQ content (%) ([2]; 3rd month vs initial): 0.059%
- Percentage difference in THQ ([2]; 3rd month vs initial): +178.78%
- THQ content by GC (%) ([2]; 6th month): 0.120%
- Difference in THQ content (%) ([2]; 6th month vs initial): 0.087%
- Percentage difference in THQ ([2]; 6th month vs initial): +263.63%
- Difference in THQ content (%) ([2]; Initial (0 month)): 0%
- Percentage difference in THQ ([2]; Initial (0 month)): 0%
- THQ content by GC (%) ([2]; Initial (0 month)): 0.033%
- thymohydroquinone quantity, trend [2, 5]: gradual increase
- anti-inflammatory potential [4]: more potent
